Our source for the IC50 values is patent US20220073536A1 (Rigel Pharmaceuticals, Inc., priority 2003, published 2022).

Structures can show the parent of a compound that is named as a salt. Where two headings read alike, the source gives them in different places. Some results are limits rather than exact numbers.

The test system of the assay is cultured human mast cells (CHMC). Put plainly: CHMC low cell density IgE activation: tryptase assay. It counts as cell-based. The note with it: low cell density CHMC, IgE activation. In short, it runs like this:
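CHMC were seeded at 1000–1500 cells/well in MT buffer and incubated 1 hr at 37 °C. They were then stimulated with anti-IgE for 30 min at 37 °C, with unstimulated wells as controls. Released tryptase in the supernatant was measured with a fluorogenic substrate after 30 min at room temperature.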

Setting [1] is: tryptase readout, 8 pt, read-out: LD Tryptase, CHMC, IgE, 8 pt.
Setting [2] is: tryptase readout, 3 pt, read-out: LD Tryptase, CHMC, IgE, 3 pt.
Setting [3] is: Homo sapiens, Mast cell, tryptase, 3 pt, read-out: LD Tryptase, CHMC, IgE, 3 pt.
Where [4] appears, read: tryptase, 8 pt, read-out: LD Tryptase, CHMC, IgE, 8 pt.
[5] abbreviates: tryptase, 3 pt, read-out: LD Tryptase, CHMC, IgE, 3 pt.
Setting [6] is: Homo sapiens, Mast cell, tryptase, 8 pt, read-out: LD Tryptase, CHMC, IgE, 8 pt.

As for `CCOC(=O)N1CCN(c2ccc(Nc3ncc(F)c(Nc4ccc5c(n4)NC(=O)CO5)n3)cc2)CC1` [Compound 1072, N2-[4-(4-Ethoxycarbonylpiperazino)phenyl]-5-fluoro-N4-(3-oxo-2H,4H-5-pyrid[1,4]oxazin-6-yl)-2,4-pyrimidinediamine], the IC50 under setting [1] is less than 10 µM.

As to `O=C1COc2ccc(Nc3nc(Nc4cccc(N5CCOCC5)c4)ncc3F)nc2N1` [Compound 1073, 5-Fluoro-N2-(3-morpholinophenyl)-N4-(3-oxo-2H,4H-5-pyrid[1,4]oxazin-6-yl)-2,4-pyrimidinediamine], under setting [1], the IC50 is less than 10 µM.

With `CN1CCN(c2cccc(Nc3ncc(F)c(Nc4ccc5c(n4)NC(=O)CO5)n3)c2)CC1` [Compound 1074, 5-Fluoro-N2-[3-(4-methylpiperazino)phenyl]-N4-(3-oxo-2H,4H-5-pyrid[1,4]oxazin-6-yl)-2,4-pyrimidinediamine], under setting [1], the IC50 was less than 10 µM.

Consider `CCOC(=O)N1CCN(c2cccc(Nc3ncc(F)c(Nc4ccc5c(n4)NC(=O)C(C)(C)O5)n3)c2)CC1` [Compound 1075, N4-(2,2-Dimethyl-3-oxo-4H-5-pyrid[1,4]oxazin-6-yl)-N2-[3-(4-ethoxycarbonylpiperazino)phenyl]-5-fluoro-2,4-pyrimidinediamine], for which the IC50 under setting [1] was less than 10 µM.

Turning to `CC(=O)N1CCN(c2cccc(Nc3ncc(F)c(Nc4ccc5c(n4)NC(=O)C(C)(C)O5)n3)c2)CC1` [Compound 1076, N2-[3-(4-Acetylpiperazino)phenyl]-N4-(2,2-dimethyl-3-oxo-4H-5-pyrid[1,4]oxazin-6-yl)-5-fluoro-2,4-pyrimidinediamine], the IC50 under setting [1] was less than 10 µM.

On to `CCOC(=O)N1CCN(c2ccc(Nc3ncc(F)c(Nc4ccc5c(n4)NC(=O)C(C)(C)O5)n3)cc2)CC1` [Compound 1077, N4-(2,2-Dimethyl-3-oxo-4H-5-pyrid [1,4]oxazin-6-yl)-N2-[4-(4-ethoxycarbonylpiperazino)phenyl]-5-fluoro-2,4-pyrimidinediamine], for which the IC50 under setting [1] is less than 10 µM.

Take `CC1(C)Oc2ccc(Nc3nc(Nc4cccc(N5CCOCC5)c4)ncc3F)nc2NC1=O` [Compound 1078, N4-(2,2-Dimethyl-3-oxo-4H-5-pyrid[1,4]oxazin-6-yl)-5-fluoro-N2-(3-morpholinophenyl)-2,4-pyrimidinediamine]: under setting [1], the IC50 is less than 10 µM.

On to `CNC(=O)COc1cccc(Nc2ncc(F)c(Nc3ccc4c(n3)NC(=O)C(C)(C)O4)n2)c1C` [Compound 1079, N4-(2,2-Dimethyl-3-oxo-4H-5-pyrid [1,4]oxazin-6-yl)-5-fluoro-N2-[2-methyl-3-(N-methylamino)carbonylmethyleneoxyphenyl]-2,4-pyrimidinediamine], for which the IC50 under setting [1] was less than 10 µM.

For the compound `CN1CCN(c2cccc(Nc3ncc(F)c(Nc4ccc5c(n4)NC(=O)C(C)(C)O5)n3)c2)CC1` [Compound 1080, N4-(2,2-Dimethyl-3-oxo-4H-5-pyrid [1,4]oxazin-6-yl)-5-fluoro-N2-[3-(4-methylpiperazino)phenyl]-2,4-pyrimidinediamine], the IC50 under setting [1] is less than 10 µM.

As to `COc1ccc(Nc2ncc(F)c(Nc3ccc4c(n3)NC(=O)[C@H](C)O4)n2)cc1Cl` [Compound 1081, (S)-N2-(3-Chloro-4-methoxyphenyl)-5-fluoro-N4-(2-methyl-3-oxo-2H,4H-5-pyrid[1,4]oxazin-6-yl)-2,4-pyrimidinediamine], the IC50 runs as follows: under setting [2], less than 10 µM; under setting [1], less than 10 µM.

For the compound `COc1cc(Nc2ncc(F)c(Nc3ccc4c(n3)NC(=O)[C@H](C)O4)n2)cc(OC)c1OC` [Compound 1082, (S)-5-Fluoro-N4-(2-methyl-3-oxo-2H,4H-5-pyrid[1,4]oxazin-6-yl)-N2-(3,4,5-trimethoxyphenyl)-2,4-pyrimidinediamine], the IC50 is less than 10 µM under setting [2] and less than 10 µM under setting [1].

Consider `O=C1COc2ccc(Nc3ncc(F)c(Nc4ccc5c(c4)NC(=O)CO5)n3)cc2N1` [Compound 1083, N2,N4-Bis (3-oxo-2H,4H-benz[1,4]oxazin-6-yl)-5-fluoro-2,4-pyrimidinediamine], for which the IC50 runs as follows: (Homo sapiens, Mast cell, tryptase readout, 3 pt, read-out: LD Tryptase, CHMC, IgE, 3 pt) less than 10 µM; (Homo sapiens, Mast cell, tryptase readout, 8 pt, read-out: LD Tryptase, CHMC, IgE, 8 pt) less than 10 µM.

In the case of `Cc1cc(C)cc(Nc2ncc(F)c(Nc3ccc4c(n3)NC(=O)[C@H](C)O4)n2)c1` [Compound 1084, (S)-N2-(3,5-Dimethylphenyl)-5-fluoro-N4-(2-methyl-3-oxo-2H,4H-5-pyrid[1,4]oxazin-6-yl)-2,4-pyrimidinediamine], the IC50 runs as follows: under setting [2], greater than 10 µM; under setting [1], less than 10 µM.

With `CCOC(=O)N1CCN(c2cccc(Nc3ncc(F)c(NC4CN(C(=O)OC(C)(C)C)C4)n3)c2)CC1` [Compound 1129], the IC50 under setting [3] is greater than 10 µM.

Take `CCOC(=O)N1CCN(c2cccc(Nc3ncc(F)c(NC4CNC4)n3)c2)CC1` [Compound 1130]: the IC50 under setting [3] was greater than 10 µM.

Consider `CN1CCN(c2ccc(Nc3ncc(F)c(NC4CNC4)n3)cc2)CC1` [Compound 1131], for which the IC50 under setting [3] was greater than 10 µM.

For the compound `Fc1cnc(Nc2cccc(-c3cnco3)c2)nc1Nc1ccc2c(n1)NCCO2` [Compound 1132, N4-(3,4-Dihydro-2H,4H-5-pyrid[1,4]oxazin-6-yl)-5-fluoro-N2-[3-(oxazol-5-yl)phenyl]-2,4-pyrimidinediamine], the IC50 under setting [4] was less than 10 µM.

Regarding `CN(c1nc(Cl)ncc1F)C1CCC1` [Compound 1133, 2-Chloro-N4-cyclobutyl-5-fluoro-N4-methyl-4-pyrimidineamine], the IC50 under setting [3] was greater than 10 µM.

With `CC(=O)N1CCN(c2ccc(Nc3ncc(F)c(Nc4ccc5c(n4)NCCO5)n3)cc2)CC1` [Compound 1134, N2-[4-(4-Acetylpiperazino)phenyl]-N4-(3,4-dihydro-2H,4H-5-pyrid[1,4]oxazin-6-yl)-5-fluoro-2,4-pyrimidinediamine], the IC50 runs as follows: under setting [5], less than 10 µM; under setting [4], less than 10 µM.

Take `CCOC(=O)N1CCN(c2ccc(Nc3ncc(F)c(Nc4ccc5c(n4)NCCO5)n3)cc2)CC1` [Compound 1135, N4-(3,4-Dihydro-2H,4H-5-pyrid[1,4]oxazin-6-yl)-N2-[4-(4-ethoxycarbonylpiperazino)phenyl]-5-fluoro-2,4-pyrimidinediamine]: the IC50 is, setting by setting: under setting [5], less than 10 µM; under setting [4], less than 10 µM.

Regarding `Fc1cnc(Nc2cccc(N3CCOCC3)c2)nc1Nc1ccc2c(n1)NCCO2` [Compound 1136, N4-(3,4-Dihydro-2H,4H-5-pyrid[1,4]oxazin-6-yl)-5-fluoro-N2-(3-morpholinophenyl)-2,4-pyrimidinediamine], the IC50 was less than 10 µM under setting [5] and less than 10 µM under setting [4].

With `CC(=O)N1CCN(c2cccc(Nc3ncc(F)c(Nc4ccc5c(n4)NCCO5)n3)c2)CC1` [Compound 1137, N2-[3-(4-Acetylpiperazino)phenyl]-N4-(3,4-dihydro-2H,4H-5-pyrid[1,4]oxazin-6-yl)-5-fluoro-2,4-pyrimidinediamine], the IC50 reads like this: under setting [5], less than 10 µM; under setting [4], less than 10 µM.

`CCOC(=O)N1CCN(c2cccc(Nc3ncc(F)c(Nc4ccc5c(n4)NCCO5)n3)c2)CC1` [Compound 1138, N4-(3,4-Dihydro-2H,4H-5-pyrid[1,4]oxazin-6-yl)-N2-[3-(4-ethoxycarbonylpiperazino)phenyl]-5-fluoro-2,4-pyrimidinediamine]: the IC50 runs as follows: under setting [5], less than 10 µM; under setting [4], less than 10 µM.

For the compound `CN1CCN(c2ccc(Nc3ncc(F)c(NC4CCC4)n3)cc2Cl)CC1` [Compound 1188, N4-Cyclobutyl-5-fluoro-N2-[3-chloro-4-(4-methylpiperazino)phenyl]-2,4-pyrimidinediamine], the IC50 under setting [3] was less than 10 µM.

As for `CC(=O)N1CCN(c2ccc(Nc3ncc(F)c(NC4CCC4)n3)cc2)CC1` [Compound 1192, N2-[4-(4-Acetylpiperazino)phenyl]-N4-cyclobutyl-5-fluoro-2,4-pyrimidinediamine Bis Hydrogen Chloride Salt], the IC50 under setting [5] is less than 10 µM.

With `CN1CCN(c2ccc(Nc3ncc(F)c(NC4CCCC4)n3)cc2Cl)CC1` [Compound 1195, N2-[3-Chloro-4-(4-methylpiperazino)phenyl]-N4-cyclopentyl-5-fluoro-2,4-pyrimidinediamine], under setting [3], the IC50 was less than 10 µM.

In the case of `CN1CCN(c2ccc(Nc3ncc(F)c(Nc4cc(C5CC5)n[nH]4)n3)cc2Cl)CC1` [Compound 1196, N2-[3-Chloro-4-(4-methylpiperazino)phenyl]-N4-(3-cyclopropyl-1H-pyrazol-5-yl)-5-fluoro-2,4-pyrimidinediamine], the IC50 under setting [3] is less than 10 µM.

Consider `CN1CCN(c2ccc(Nc3ncc(F)c(Nc4ccc5c(n4)NCCO5)n3)cc2Cl)CC1` [Compound 1197, N2-[3-Chloro-4-(4-methylpiperazino)phenyl]-N4-(3,4-dihydro-2H,4H-5-pyrid[1,4]oxazin-6-yl)-5-fluoro-2,4-pyrimidinediamine], for which the IC50 is less than 10 µM under setting [5] and less than 10 µM under setting [4].

`CN1CCN(c2ccc(Nc3ncc(F)c(NC4CCCCC4)n3)cc2Cl)CC1` [Compound 1199, N2-[3-Chloro-4-(4-methylpiperazino)phenyl]-N4-cyclohexyl-5-fluoro-2,4-pyrimidinediamine Bis Hydrogen Chloride Salt]: the IC50 under setting [4] was less than 10 µM.

As to `Cc1cc(Nc2ncc(F)c(NC3CCCC3)n2)ccc1N1CCN(C)CC1` [Compound 1200], under setting [3], the IC50 was less than 10 µM.

With `Cc1cc(Nc2ncc(F)c(NC3CCCCC3)n2)ccc1N1CCN(C)CC1` [Compound 1201], the IC50 under setting [3] was less than 10 µM and the IC50 under setting [6] is less than 10 µM.

`Cc1cc(Nc2ncc(F)c(Nc3cc(C4CC4)n[nH]3)n2)ccc1N1CCN(C)CC1` [Compound 1202]: the IC50 reads like this: under setting [3], less than 10 µM; under setting [6], less than 10 µM.
